Patent publication US5573908A, “Adrenergic receptor as a proto-oncogene” (Duke University, priority 1993, dated 1996)

Tests used:
[1] = test system: RAT-1 fibroblasts transfected with α1B -ADR mutant; assay: Focus formation in RAT-1 fibroblasts transfected with α1B-ADR mutant c-DNA; assay type: cell-based
Method: (§1) Transfection was carried out as follows: RAT-1 fibroblasts were seeded at a density of 2×10^5 cells in Dulbecco's modified Eagle's medium (DMEM) (Gibco) containing 5% fetal bovine serum (FBS) in 100 mm dishes. Cells were grown overnight, then transfected with 10 μg of DNA (expression vector alone [pZIP-NeoSV(X)1] or containing the α1B-ADR, α1B -ADR mutant [discussed in Example 3 below] or activated Ha-ras c-DNAs) by calcium phosphate precipitation (B. Cullen, Methods Enzymol. 152, 684 (1987)). The α1B -ADR used herein was the hamster α1B -ADR described in S. Cotecchia et al., Proc. Natl. Acad. Sci. USA 85, 7159-7163 (1988). After 16 hours, the DNA precipitate was removed, the cells washed and grown for 24 hours in complete medium. Cells were split 1:5, allowed to attach overnight and then cultured in DMEM with 5% FBS alone, supplemented with 10 μM norepinephrine (NE) or G418 (300 μg/ml). Dishes were supplemented with NE daily, and fed every 3 days with fresh medium.
^1 Cells were cultured for 3 weeks in the presence or absence of 10
μM norepinephrine (NE), supplemented daily, in medium containing 5%
FBS. The number of transformed foci were scored after 4 weeks of culture.
Results represent the average duplicate determinations from two
independent experiments which agreed within 25%; nd = not determined. […]
growth, the number of foci was scored. […]

[2] = test system: NIH 3T3 fibroblasts transfected with ras c-DNA; assay: Focus formation in NIH 3T3 fibroblasts transfected with ras c-DNA; assay type: cell-based; conditions: NIH 3T3 transfected with ras; 10 μM NE supplemented daily, 5% FBS (Table 1)
Method: as §1, with “Dishes were supplemented with NE daily, and fed every 3 days with fresh medium.” left out
After transfection of plasmid DNA into RAT-1 fibroblasts, no change in phenotype or focal cell overgrowth was observed after 4 weeks in culture in the absence of added agonist (FIG. 1A). […] Agonist-induced foci represented approximately 15-25% of transfected clones with the number of G418 resistant colonies (40-60/dish) assessed in duplicate transfections. […]
FBS. The number of transformed foci were scored after 4 weeks of culture. […]
independent experiments which agreed within 25%; nd = not determined.

## NC[C@H](O)c1ccc(O)c(O)c1 [NE, norepinephrine]
[1]; RAT-1 transfected with α1B ADR mutant, 10 μM NE supplemented daily, 5% FBS, initially transfected cells (Table 1)
  Foci No. +NE: 11
[1]; focus derived RAT-1 cell lines, α1B ADR mutant, 10 μM NE, 3 weeks of growth, two clones (Table 2)
  Foci No. +NE: > 500
[2]
  Foci No. +NE: 180
